In US20080096228A1, “Compositions And Methods Relating To Mammalian Internal Ribosome Entry Sites” (THE REGENTS OF THE UNIVERSITY OF CALIFORNIA, priority 2006, published 2008):
“And” between values parts separate entries of the source, which are not always exact repeats. Equal entries are not always repeated. Structures can show the parent of a compound that is named as a salt.

B1: LEF1 IRES: human LEF1 5'UTR (1.178 kb) internal ribosome entry site, SEQ ID NO:1, in dicistronic vector pRSTF-LEF(1.2) (nucleic acid, listed as Homo sapiens)
DNA: TCAGCGCCGGCGAGGCGCGGGAGGAGGAGAAGCAGTGGGGAGGCGCAGCCGCTCACCTGCGGGGCAGGGCGCGGAGGAGGGACCCGGGCTGCGCGCTCTCGGGCCGAGGAACCAGGACGCGCCCGGAGCCTCGCACGCGGCCAAGCTCGGGGCGTCCCCTCCCCTCGGCCGGGCGAACTCAAGGGGCGCAGCTCTTTGCTTTGACAGAGCTGGCCGGCGGAGGCGTGCAGAGCGGCGAGCCGGCGAGCCAGGCTGAGAAACTCGAGCCGGGAACAAAGAGGGGTCGGACTGAGTGTGTGTGTCGGCTCGAGCTCCGGGCAGAGGCATTTGGGCCCGAGGCCCCCGCTGTGACTCCCCGAGACTCCGCAGTGCCCTCCACTGCGGAGTCCCCGCGCTTGCCGGCAAAAACTTTATTCTTGGCAAACTTCTCTTTCTCTTCCCCTCCTCCTCGGCCCCCATCTTCTGCTCCTCCTCCTTCTCTAGCAGATTAAATGAGCCTCGAGAAGAAAAACCGAAGCGAAAGGGAAGAAAATAAGAAGATCTAAAACGGACATCTCCAGCGTGGGTGGCTCCTTTTTCTTTTTCTTTTTTTCCCACCCTTCAGGAAGTGGACGTTTCGTTATCTTCTGATCCTTGCACCTTCTTTTGGGGCAAACGGGGCCCTTCTGCCCAGATCCCCTCTCTTTTCTCGGAAAACAAACTACTAAGTCGGCATCCGGGGTAACTACAGTGGAGAGGGTTTCCGCGGAGACGCGCCGCCGGACCCTCCTCTGCACTTTGGGGAGGCGTGCTCCCTCCAGAACCGGCGTTCTCCGCGCGCAAATCCCGGCGACGCGGGGTCGCGGGGTGGCCGCCGGGGCAGCCTCGTCTAGCGCGCGCCGCGCAGACGCCCCCGGAGTCGCCAGCTACCGCAGCCCTCGCCGCCCAGTGCCCTTCGGCCTCGGGGGCGGGCGCCTGCGTCGGTCTCCGCGAAGCGGGAAAGCGCGGCGGCCGCCGGGATTCGGGCGCCGCGGCAGCTGCTCCGGCTGCCGGCCGGCGGCCCCGCGCTCGCCCGCCCCGCTTCCGCCCGCTGTCCTGCTGCACGAACCCTTCCAACTCTCCTTTCCTCCCCCACCCTTGAGTTACCCCTCTGTCTTTCCTGCTGTTGCGCGGGTGCTCCCACAGCGGAGCGGAGATTACAGAGCCGCCGGGATGCCCCAACTCTCCGGAGGAGGTGGCGGCGGCGGGGGGGACCCGGAACTCTGCGCCACGGACGAGATGA
modifications: (298)..(1095) IRES Sequence; (298)..(656) IRES Module 1; (656)..(1095) IRES Module 2

How the values were obtained:
[1] = tested on: LEF-1 protein expression in K562 cells; test: LEF-1 protein expression in K562 cells, Western blot; assay type: cell-based; conditions: imatinib 2 uM, rapamycin 10 ng/mL or both, 24 hours
LEF1 mRNA = test: Northern blot of LEF1 mRNA in K562 cells; assay type: cell-based; conditions: 2 μM imatinib, 24 hours; for decrease of LEF1 mRNA levels (3.6 kb and 3.0 kb mRNAs): rapamycin 10 ng/mL or both, not normalized
Experimental: Total RNA was isolated from K562 cells using TriZol reagent (Invitrogen) according to the manufacturer's instructions. […] Approximately 20 μg of total RNA from K562 cells was analyzed on a Northern blot for LEF1 expression, respectively. Northern blotting was carried out as described elsewhere and the LEF1 ORF (open reading frame) probe was generated as described elsewhere and radiolabeled with ^32P-dATP. The blot was stripped and rehybridized with a ^32P-dATP radioloabeled GAPDH loading control probe.
Panel B: Northern blot analysis of total RNA isolated from K562 cells treated with inhibitors as described above. The three LEF1 mRNAs are indicated by arrows. A radiolabeled LEF-1 ORF cDNA probe was used to detect LEF1 mRNAs in the top panel. The blot was stripped and reprobed with GAPDH.

GAPDH mRNA = test: Northern blot of GAPDH mRNA (loading control) in K562 cells; assay type: cell-based; conditions: 2 μM imatinib, 24 hours
LEF-1 IRES [2] = test: Dicistronic DNA transfection dual luciferase assay, LEF-1 IRES, K562 cells; assay type: cell-based; conditions: 2 μM imatinib, 24 hour treatment
[3] = tested on: cap-dependent translation (RLuc); test: Dicistronic DNA transfection, RLuc cap-dependent translation, K562 cells; assay type: cell-based; conditions: 2 μM imatinib
[4] = tested on: cap-dependent translation (RLuc); test: Capped dicistronic RNA transfection, RLuc cap-dependent translation, K562 cells; assay type: cell-based; conditions: 2 μM imatinib, 24 hours
Experimental: (§1) The capped dicistronic mRNAs were generated by in vitro transcription of the dicistronic (linearized with PMEI) plasmid using the T7-based Megascript in vitro transcription kit (Ambion) as per the manufacturer's protocol. The integrity of the transcripts was analyzed on a 1% agarose gel.
(§2) Approximately 6×10^5 cells (K562) were seeded in 6-well plates and 2 μg of in vitro synthesized dicistronic mRNA was transfected per well using the Transmessenger transfection kit (Qiagen). A ratio of 1:6 (1 μg of RNA: 6 μL of transmessenger reagent) was used according to the manufacturer's instructions. […] Cell lysates were then assayed for luciferase activities as described above. All transfections were performed in duplicate and carried out 3 times.
(§3) To determine whether Bcr-Abl regulation is compartmentalized and further examine whether it functions post-transcriptionally, an RNA transient transfection was carried out in K562 cells. […] In these experiments the inventors again utilized CVB3 as a control for regulation in subcellular compartments since it predominantly depends on cytoplasmic machinery for translation.

LEF-1 IRES [5] = test: Capped dicistronic RNA transfection, LEF-1 IRES firefly luciferase, K562 cells; assay type: cell-based; conditions: 2 μM imatinib, 24 hours, p<0.001
Experimental: as §1, §2, §3

CVB3 IRES [6] = test: Capped dicistronic RNA transfection, CVB3 IRES firefly luciferase, K562 cells; assay type: cell-based; conditions: 2 μM imatinib, 24 hours
Experimental: as §1, §2, §3

[7] = tested on: LEF-1 protein expression in primary CML cells; test: LEF-1 protein expression in primary CML cells, Western blot; assay type: cell-based, human; conditions: rapamycin 10 ng/mL, 24 hours
Experimental: PB mononuclear cells (MNCs) were obtained by centrifugation through Ficoll-Hypaque, washed in PBS, and cryopreserved. To expand CML cells in vitro, cells were thawed and grown in media supplemented with 10% FBS and a growth factor cocktail consisting of 20 ng/ml granulocyte-macrophage colony stimulating factor, 20 ng/ml recombinant human interleukin 3, 20 ng/ml recombinant human stem cell factor, and 100 ng/ml granulocyte colony-stimulating factor. Following this, cells were incubated in liquid culture for 72-96 hrs, at 37° C. in a humidified atmosphere with 5% CO2 in serum-free medium (SFM) (StemCell Technologies, Vancouver, BC, Canada) supplemented with growth factors (GF) at concentrations similar to that found in stroma-conditioned medium. All cytokines were from PeproTech, Rocky Hills, N.J., except for GM-CSF (sargramostim, Immunex, Seattle, Wash.) and G-CSF (filgrastim, Amgen, Thousand Oaks, Calif.).

LEF1 IRES = test: Dicistronic DNA transfection dual luciferase assay, LEF1 IRES, Ba/F3-Bcr-Abl-WT cells; assay type: cell-based, murine
Experimental: (§4) For transfection of the dicistronic plasmids into Ba/F3 cells, approximately 10×10^6 cells were seeded in […] and 10 μg of the reporter plasmid was transfected via a BTX 600 electroporator. […] Cell lysates were prepared for dual luciferase assays 8 hours post-transfection. […] Cell lysates were prepared for dual luciferase assays 24 hours post-transfection. Transfections were performed in duplicate and each experiment was carried out at least 3 times.
(§5) Cell lysates were assayed for luciferase activities using the Dual Luciferase Reporter Assay System (Promega) according to the manufacturer's protocol. Assays were performed using a SIRIUS luminometer (Berthold Detection Systems). FLuc:RLuc ratios were calculated for each sample, and the average value is represented as fold elevation over background, which is the Firefly luciferase: Renilla luciferase ratio (FLuc:RLuc) measured from the vector in the absence of an insert. […]
(§6) The dicistronic vector depicted in FIG. 4A contains 2 cistrons separated by an intercistronic region that also contains a hairpin structure. […] A dicistronic construct that contains the full length 1.2 kb LEF1 5′UTR and IRES, the empty vector with no insert (pRSTF), and the viral IRES of the well characterized coxsackievirus B3 (CVB3) were analyzed for comparison. […]

CVB3 IRES [8] = test: Dicistronic DNA transfection dual luciferase assay, CVB3 IRES, Ba/F3-Bcr-Abl-WT cells; assay type: cell-based, murine; conditions: 10 ng/mL rapamycin, 6 hours
Experimental: as §4, §5, §6

[9] = tested on: cap-dependent translation (RLuc); test: Dicistronic DNA transfection, RLuc cap-dependent translation, Ba/F3-Bcr-Abl-WT cells; assay type: cell-based, murine; conditions: inhibitors for 6 hours
Experimental: as §4
Cell lysates were assayed for luciferase activities using the Dual Luciferase Reporter Assay System (Promega) according to the manufacturer's protocol. Assays were performed using a SIRIUS luminometer (Berthold Detection Systems). FLuc:RLuc ratios were calculated for each sample, and the average value is represented as fold elevation over background, which is the Firefly luciferase: Renilla luciferase ratio (FLuc:RLuc) measured from the vector in the absence of an insert.
as §6

| Molecule | LEF-1 protein levels [1] | decrease of LEF1 mRNA after normalizing with GAPDH mRNA levels (LEF1 mRNA) [fold] | decrease of LEF1 mRNA levels (3.6 kb and 3.0 kb mRNAs) (LEF1 mRNA) [fold] | reduction of GAPDH mRNA levels (GAPDH mRNA) [fold] | decrease in LEF-1 IRES activity (LEF-1 IRES [2]) [fold] | decrease in LEF-1 IRES activity (LEF-1 IRES [2]; listed as Imatinib) | reduction of RLuc translation, average [3] [fold] | inhibition of RLuc translation, average [4] [fold] | reduction of LEF-1 IRES activity in the cytoplasm (LEF-1 IRES [5]) [%] | effect on CVB3 IRES activity (CVB3 IRES [6]) | LEF-1 protein levels [7] | decrease in LEF-1 IRES activity (FLuc:RLuc) (LEF1 IRES; 10 ng/mL rapamycin, 6 hours) [%] | decrease in CVB3 IRES activity (FLuc:RLuc) (CVB3 IRES [8]) [%] | decrease in RLuc activity (cap-dependent translation), average [9] [fold] | elevation in the FLuc:RLuc ratio over empty vector (LEF1 IRES; 8 hours post-transfection, no inhibitor) [fold] |
| --- | --- | --- | --- | --- | --- | --- | --- | --- | --- | --- | --- | --- | --- | --- | --- |
| Cc1ccc(NC(=O)c2ccc(CN3CCN(C)CC3)cc2)cc1Nc1nccc(-c2cccnc2)n1 [imatinib, imatinib mesylate] | significantly down-regulated | 2 | 3 | 1.4 | 2.3 | 3-4 fold and 3 fold | 2.6 | 3.4 | 45 | insensitive | – | – | – | – | – |
| CO[C@H]1C[C@@H]2CC[C@@H](C)[C@@](O)(O2)C(=O)C(=O)N2CCCC[C@H]2C(=O)O[C@H]([C@H](C)C[C@@H]2CC[C@@H](O)[C@H](OC)C2)CC(=O)[C@H](C)/C=C(\C)[C@@H](O)[C@@H](OC)C(=O)[C@H](C)C[C@H](C)/C=C/C=C/C=C/1C [rapamycin] | no effect | – | ~2 | – | – | – | – | – | – | – | no effect | 38 | 33 | 2 | – |
| B1 | – | – | – | – | – | – | – | – | – | – | – | – | – | – | 55 |
